These results are taken from patent US9844656B2, “Localization of agents at a target site with a composition and an energy source” (The Regents of the University of California, priority 2010, dated 2017).

For series [1], the system named is MET-1^fvb2 mammary carcinoma cells. The experiment in a line: In vitro viability assay (MTT). Format: cell-based, mouse. To be noted: Met-1 cell line, 72 hours, read-out: IC50 (cytotoxicity). As for the experimental part:
MET-1^fvb2 mammary carcinoma cells were obtained from the Alexander Borowsky Laboratory (UC Davis). MET-1 cells were plated at 2000 cells in 50 μl media per well in 96-well tissue culture plates in high glucose Dulbecco's Modified Eagle's Medium (DMEM, Invitrogen, Carlsbad, Calif.) supplemented with 1% PenStrep and 10% FBS. Cells were given six hours to attach to the plate surface. Treatments were added to each well in 100 μl media and experiments were performed in triplicate. Doxil®, a commercial product of ALZA corporation and manufactured by Centocor Ortho Biotech, was purchased from Cardinal Health Care (Dublin, Ohio) and the in vitro viability was compared with the liposomal copper-doxorubicin.
Plates were incubated for 72 hours at 37° C. in 5% CO2. 3-(4,5-dimethylthiazol-2-yl)-2,5-diphenyltetrazolium bromide (MTT, Invitrogen, Carlsbad, Calif.) reagent was added to media at a concentration of 0.5 mg/ml, and cells were incubated 2 hours at 37° C. in 5% CO2. […] Absorbance was measured using Tecan Infinite® M1000 Microplate Reader (San Jose, Calif.) at wavelength 570 nm (reference of 670 nm). Best-fit curves and IC50 values were calculated for concentration-response curves using GraphPad Prism software (GraphPad Inc., La Jolla, Calif.). Average IC50 values calculated from a minimum of three replicate experiments for each preparation.

For series [2] the following is noted: mouse, in vivo.
Procedure: Images of circulating doxorubicin were acquired using the Maestro™ hyperspectral imaging system (Cambridge Research & Instrumentation, Inc., Woburn, Mass.). Animals were then euthanized and perfused with saline at 24 or 48 hours post systemic administration of the drug and the accumulation of doxorubicin or copper in tissues and organs were imaged and quantified ex vivo.
The Maestro™ in vivo Imaging System (Cambridge Research & Instrumentation, Inc., Woburn, Mass.) was utilized. The system is consisted of a light-tight and temperature-controlled imaging chamber, a tunable multi-spectral camera system, and a computer with pre-installed software which allows accurate spectral unmixing for increased spectral contrast and improved data quantification. Each mouse was placed in the imaging chamber at 37° C., systemically injected with either free or liposomal doxorubicin, and imaged using the blue Maestro filter set (500:10:720) with the exposure time of 1000 ms. The fluorescence signals were then unmixed from the auto-fluorescence in the image cube. A region of interest (ROI) was manually selected over the signal intensity. The area of the ROI was kept constant and the intensity was recorded as average signal (photons/s/cm^2) within a ROI. […]
Series [3] in a line: Ex vivo imaging of doxorubicin accumulation in mouse heart. Particulars: 40 min post administration. As to the method: FIG. 15. Ex vivo imaging of doxorubicin accumulation in mouse heart after liposomes were injected into the tail vein and allowed to circulate. Heart was removed after euthanasia to assess fluorescence. a) Doxorubicin fluorescence in hearts of mice injected with liposomal doxorubicin in lyso-temperature sensitive liposomes when Dox was loaded with ammonium sulfate method (ASDox-LTSLs) or loaded in liposomes containing 100 mM copper/270 mM TEA (CuDox-LTSLs), and loaded in temperature sensitive liposomes with 25% cholesterol containing 100 mM copper/270 mM TEA (CuDox-TSLs+25% chol) compared to those injected with free Dox. Animals were euthanized 40 min post administration of free or liposomal doxorubicin. Animals were perfused with saline and hearts were dissected prior to Maestro imaging. Statistical analyses were performed using one-way ANOVA followed by a Tukey Post Hoc test. *p<0.05, **p<0.01. Inset images of heart acquired by Maestro imaging system (white indicates higher doxorubicin fluorescence intensity).

The test system of series [4] is NDL cells. The experiment in a line: Intracellular trafficking and subcellular localization of doxorubicin. To be noted: post incubation at 37° C. The series is classed as cell-based.

As for `COc1cccc2c1C(=O)c1c(O)c3c(c(O)c1C2=O)C[C@@](O)(C(=O)CO)C[C@@H]3O[C@H]1C[C@H](N)[C@H](O)[C@H](C)O1.Cl` [free doxorubicin, Doxorubicin hydrochloride], in series [1], the IC50 (usually the concentration that inhibits the measured activity by half) was 20 ± 10 nM. In addition, the skin fluorescence trend entry in series [2] was “decreasing with time”. Further, the “increase in cardiac accumulation of doxorubicin compared to liposomal copper-doxorubicin in temperature-sensitive liposomes” value in series [3] amounted to 4 fold. Also, the “time at which the nucleus showed doxorubicin fluorescence” value in series [4] was found to be 15 min.
